From patent publication US10036018B2, “Compositions and methods for treating cachexia” (priority 2014, dated 2018) come the findings set out here.

The test system of assay [1] is TLR7+/+ primary myoblasts. Nature of the assay: Cell viability (cell counter) of TLR7+/+ primary myoblasts treated with Dotap formulations of miRNAs. Type of assay: cell-based, mice. The following applies: Dotap formulation, 24 h. The method, then: (§1) FIG. 4A is a graph depicting cell viability assessed with a cell counter for TLR7+/+ and TLR7−/− primary myoblasts that were treated with Dotap formulations of miR-16 and miR-21 for 24 h. As negative control, cells were incubated with Dotap alone. Experiments were performed in quadruplicate. Results are presented as average±SEM. *P≤0.05; **P≤0.01; ***P≤0.001.
(§2) MV Treatment. C2C12 immortalized myoblasts or primary myoblasts isolated from mice were treated with MVs at indicated times. Cell numbers of myoblasts were counted on a hemocytometer.
(§3) Myoblast Isolation and Culture. Primary myoblasts were isolated as previously described (2) and preplated twice, using noncoated tissue culture dishes, and then cultured either on a matrigelcoated 96-well plate for MTS assay reading at indicated times or on a matrigel-coated 12-well plate for protein and RNA analysis.

The test system of assay [2] is TLR7−/− primary myoblasts. Nature of the assay: Cell viability (cell counter) of TLR7-/- primary myoblasts treated with Dotap formulations of miRNAs. Format: cell-based, mice. The following applies: Dotap formulation, 24 h. As for the experimental part: as §1, §2, §3
Mice. Cachexia in the LLC model were induced as previously described (2). TLR7−/− mice were obtained from Jackson Laboratory. Wild-type C57B6 male mice at the same age and weight were used as TLR7+/+ controls. All genotypes were determined by PCR, using tail DNA. All procedures used in this study complied with federal guidelines and the institutional policies of the Ohio State University Animal Care and Use Committee.

The test system of assay [3] is phospho-JNK. Kind of assay: Western blot of treated C2C12 extracts, phospho-JNK. Format: cell-based, murine. The following applies: proliferating myoblasts, Western blot time course. As for the experimental part: (§4) FIG. 9B is an image of a Western blot on extracts of C2C12 cells that had been treated with either LLC-derived MVs (Upper) or synthetic miR-21 (Lower, using miR-16 as control), which were probed with antibodies against phospho-JNK, phospho-c-jun, and phospho-p38 at different times, as indicated.
(§5) Western Blot. Western blots were performed as previously described (2). Antibodies used and their dilutions are listed: p-JNK (Cell Signaling Technology, 1:2,000), p-c-Jun (Cell Signaling Technology, 1:1,000), p-p38 (Cell Signaling Technology, 1:2,000), and vinculin (Abeam, 1:3,000).
On the technique in general: In western blotting, separated proteins are transferred to a membrane and probed.

In assay [4] the test system is phospho-c-jun. Kind of assay: Western blot of treated C2C12 extracts, phospho-c-jun. Format: cell-based, murine. The following applies: proliferating myoblasts, Western blot time course. As for the experimental part: as §4, §5
Assay [5] deals with phospho-p38. Nature of the assay: Western blot of treated C2C12 extracts, phospho-p38. Type of assay: cell-based, murine. As to conditions: proliferating myoblasts, Western blot time course. As for the experimental part: as §4, §5
For assay [6], the system named is C2C12 myoblasts. Kind of assay: Trypan blue cell death of C2C12 cells treated with cytokines. Format: cell-based, murine. The following applies: C2C12, 24 h, cytokines at 5 ng/mL. As for the experimental part:
FIG. 5C is a graph depicting cell death assessed by trypan blue dye staining performed on C2C12 cells that were treated for 24 h with individual cytokines or a mixture (Cocktail) of IL-1, IL-6, TNFα, and IFNγ (all at 5 ng/mL). As a negative control, cells were treated with serum-free medium.
Trypan Blue Staining. Trypan blue dye was purchased from Gibco (15250-061), and staining was performed following the manufacturer's protocol. Dead cells are blue in color under the microscope and were counted using a hemocytometer.

Turning to UAGCUUAUCAGACUGAUGUUGA [miR-21], the “cell death on exogenous addition of miRNA” value in assay [1] was “induced pronounced cell death”; in assay [2] it was “significantly blunted”; in assay [2] (listed as miR21), “does not completely rescue”. In assay [3], the JNK activation result was “transiently induced”. The c-JUN activation result in assay [4] is listed as “transiently induced”. The p38 activity entry in assay [5] is listed as “no significant change”.
For IL-6: proinflammatory cytokine, the “effect on the viability of proliferating murine C2C12 myoblasts” value (“effect on the viability” for short) in assay [6] is recorded as “little or no effect”.
Take IFN-γ: proinflammatory cytokine: the “effect on the viability” value in assay [6] is “little or no effect”.
Take TNFα: in assay [6], the “effect on the viability” value is recorded as “little or no effect”.
With IL-1β: proinflammatory cytokine, the “effect on the viability” value in assay [6] is reported as “little or no effect”.
